We go through four molecules from patent publication US7589232B2, “Alkynyl aryl carboxamides” (Laboratories Serono S.A., priority 2003, dated 2009).

In general, IC50 refers to the concentration at which inhibition is half-maximal.

Each structure is given as a SMILES string. Counter-ions that a name gives are not always drawn.

The target in one assay is T1, PTP1B (Homo sapiens, UniProt P18031).
T1 construct: using the catalytic core of a human recombinant PTP as the enzyme; made in house
T1 sequence (P18031 3-277 limits assumed): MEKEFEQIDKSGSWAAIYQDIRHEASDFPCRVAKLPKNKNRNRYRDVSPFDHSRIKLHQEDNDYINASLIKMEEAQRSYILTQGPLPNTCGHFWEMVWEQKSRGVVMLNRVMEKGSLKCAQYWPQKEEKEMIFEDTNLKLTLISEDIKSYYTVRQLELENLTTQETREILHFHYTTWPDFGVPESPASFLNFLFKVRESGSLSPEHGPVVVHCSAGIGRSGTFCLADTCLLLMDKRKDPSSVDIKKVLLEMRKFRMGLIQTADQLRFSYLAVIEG
In words: PTP Enzyme Assay (DiFMUP), PTP1B. Type of assay: biochemical. To be noted: 5 μM DiFMUP substrate; catalytic core of human recombinant PTP; triplicates; read-out: IC50 value in respect of PTP1B. On the procedure: (§1) The PTP Enzyme Assay aims at determining the extent of inhibition of PTPs, e.g. of PTP1B, SHP-1, SHP-2, GLEPP-1 or PTP-H1 in the presence of a test compound of formula (I) or (I′). The inhibition is illustrated by IC50 values which denote the concentration of test compound necessary to achieve an inhibition of 50% of said PTP's using the following concentration of the PTP substrate DiFMUP: • 5 μM DiFMUP for PTP1B and PTP-H1; • 20 μM DiFMUP for SHP-1 and SHP-2. • 30 μM DiFMUP for GLEPP-1. a) PTPs Cloning
The cloning and expression of the catalytic domain e.g. of PTP1B, may be performed as described in J. Biol. Chem. 2000, 275(13), pp 9792-9796.
(§2) The DiFMUP assay allows to follow the dephosphorylation of DiFMUP (6,8-DiFluoro-4-MethylUmbelliferyl Phosphate)—which is the PTP substrate—mediated by PTP into its stable hydrolysis product, i.e. DiFMU (6,8-difluoro-7-hydroxy coumarin). Due to its rather low pKa and its high quantum yield, DiFMU allows to measure both acidic and alkaline phosphatase activities with a great sensitivity.
(§3) Assays were performed in a 96 well plate format, using the catalytic core of a human recombinant PTP as the enzyme and 6,8-DiFluoro-4-MethylUmbelliferyl Phosphate (DiFMUP, Molecular Probes, D-6567) as a substrate. Compounds to be tested were dissolved in 100% DMSO at a concentration of 2 mM. Subsequent dilutions of the test compounds (to yield a concentration of 100, 30, 10, 3, 1, 0.3, 0.1, 0.03, 0.01, 0.001 μM) wore performed in 60% DMSO manually. 8 μl of diluted compound or vehicle (60% DMSO=control) was distributed to a black Costar 96 well plate. 42 μl of human recombinant PTP enzyme diluted in assay buffer (20 mM Tris HCl pH 7.5, 0.01% IGEPAL CA-630, 0.1 mM ethylenediaminetetracetic acid, 1 mM DL-Dithiothreitol) can be added to the dilutions of compound or vehicle (distributed to a black Costar 96 well plate), followed by 50 μl of DiFMUP diluted in the assay buffer. The reaction ran for 30 minutes at room temperature before reading the fluorescence intensity (integral or intensity) on a Perkin-Elmer Victor 2 spectrofluorimeter (excitation of 6,8-difluoro-7-hydroxy coumarin is at 355 nm, the emission at 460 nm, for 0.1 s). The percentage of inhibition is determined by measuring the relative fluorescence ion absence of a test compound (PTP inhibitor), i.e. with the solvent alone (5% DMSO). The IC50 values for inhibition were determined in triplicates.

Another assay concerns the target T2, GLEPP-1 (Homo sapiens, UniProt Q16827).
T2 construct: using the catalytic core of a human recombinant PTP as the enzyme
T2 sequence (Q16827 938-1195 limits assumed): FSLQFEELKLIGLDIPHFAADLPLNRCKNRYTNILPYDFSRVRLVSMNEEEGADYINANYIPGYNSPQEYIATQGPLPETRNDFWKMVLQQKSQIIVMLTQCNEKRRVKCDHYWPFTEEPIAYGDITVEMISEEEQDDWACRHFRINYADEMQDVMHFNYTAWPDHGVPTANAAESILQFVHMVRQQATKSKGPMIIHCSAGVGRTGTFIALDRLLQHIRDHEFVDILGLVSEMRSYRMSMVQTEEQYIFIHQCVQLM
In words: PTP Enzyme Assay (DiFMUP), GLEPP-1. Type of assay: biochemical. To be noted: 30 μM DiFMUP substrate; catalytic core of human recombinant PTP; triplicates; read-out: IC50 value in respect of GLEPP-1. On the procedure: as §1, §2, §3

The target in another assay is T3, SHP-1 (Homo sapiens, UniProt P29350).
T3 construct: using the catalytic core of a human recombinant PTP as the enzyme
T3 sequence (P29350 244-515 limits assumed): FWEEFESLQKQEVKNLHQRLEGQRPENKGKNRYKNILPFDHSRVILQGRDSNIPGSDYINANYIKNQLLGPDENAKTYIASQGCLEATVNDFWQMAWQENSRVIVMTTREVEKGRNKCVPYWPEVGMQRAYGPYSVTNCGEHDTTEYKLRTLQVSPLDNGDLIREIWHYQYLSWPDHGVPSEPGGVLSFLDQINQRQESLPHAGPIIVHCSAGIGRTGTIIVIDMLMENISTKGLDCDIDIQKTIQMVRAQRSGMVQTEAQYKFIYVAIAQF
Description: PTP Enzyme Assay (DiFMUP), SHP-1. It counts as biochemical. To be noted: 20 μM DiFMUP substrate; catalytic core of human recombinant PTP; triplicates; read-out: IC50 value in respect of SHP-1. The procedure: as §1, §2, §3

A further assay concerns the target T4, SHP-2 (Homo sapiens, UniProt Q06124).
T4 construct: using the catalytic core of a human recombinant PTP as the enzyme
T4 sequence (Q06124 247-517 limits assumed): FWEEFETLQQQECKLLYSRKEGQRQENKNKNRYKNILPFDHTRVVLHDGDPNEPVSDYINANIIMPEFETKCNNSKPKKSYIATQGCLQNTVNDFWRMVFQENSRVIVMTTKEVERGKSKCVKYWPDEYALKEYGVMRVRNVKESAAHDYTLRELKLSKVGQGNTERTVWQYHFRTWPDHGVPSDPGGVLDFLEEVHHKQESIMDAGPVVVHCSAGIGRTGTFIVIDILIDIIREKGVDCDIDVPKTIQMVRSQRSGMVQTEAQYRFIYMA
Description: PTP Enzyme Assay (DiFMUP), SHP-2. Type of assay: biochemical. To be noted: 20 μM DiFMUP substrate; catalytic core of human recombinant PTP; triplicates; read-out: IC50 value in respect of SHP-2. The procedure: as §1, §2, §3

The next assay concerns the target T5, PTP-H1 (Homo sapiens, UniProt P26045).
T5 construct: using the catalytic core of a human recombinant PTP as the enzyme
T5 sequence (P26045 646-901 limits assumed): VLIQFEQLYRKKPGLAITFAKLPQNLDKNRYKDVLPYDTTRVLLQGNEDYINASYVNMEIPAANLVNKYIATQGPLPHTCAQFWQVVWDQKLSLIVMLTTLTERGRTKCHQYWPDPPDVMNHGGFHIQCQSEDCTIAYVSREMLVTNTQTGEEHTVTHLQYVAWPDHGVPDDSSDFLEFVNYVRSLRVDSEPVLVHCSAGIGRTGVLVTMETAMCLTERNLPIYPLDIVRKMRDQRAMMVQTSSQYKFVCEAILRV
Description: PTP Enzyme Assay (DiFMUP), PTP-H1. It counts as biochemical. To be noted: 5 μM DiFMUP substrate; catalytic core of human recombinant PTP; triplicates; read-out: IC50 value in respect of PTP-H1. On the procedure: as §1, §2, §3

In the next assay the test system is db/db mice. In words: In vivo assay in db/db mice (postprandial glycemia). To be noted: 4 hrs after drug administration, expressed as a percentage of control (vehicle, Group 1). The procedure: The following assay aims at determining the anti-diabetic effect of the test compounds of formula (I) or (I′) in a model of postprandial glycemia in db/db mice, in vivo.
A total of 18 db/db mice (about 8-9 weeks; obtained from IFFACREDO, l'Arbreste, France) were fasted during 20 hours.
3 groups, each consisting of 6 animals were formed: • Group 1: The animals were administered (per os) a dose of 10 mL/kg of vehicle (control). • Group 2: The animals were administered (per os) a dose of 30 mg/kg of the test compound according to formula (I) solubilized in the vehicle. • Group 3: The animals were administered (per os) a dose of 100 mg/kg of the test compound according to formula (I) solubilized in the vehicle.
After oral administration of the compounds of formula (I) or (I′) solubilized or suspended in CarboxyMethylCellulose (0.5%), Tween 20 (0.25%) in water as vehicle, the animals had access to commercial food (D04, UAR, Villemoisson/Orge, France) ad libitum. The diabetic state of the mice was verified by determining the blood glucose level before fasting. Blood glucose and serum insulin levels were then determined 4 hrs after drug administration.
The determination of the blood glucose level was performed using a glucometer (Ascensia Dex^2, Bayer, ref 3956C).
The determination of the Insulin level was performed using an ELISA kit (Mercodia, ref 10-1149-10).
Changes in blood glucose and serum insulin of drug treated mice were expressed as a percentage of control (group 1: vehicle treated mice).

With `CCCCc1ccc(C#Cc2ccc(CN(C(=O)C(C)(C)C)c3ccc(C(=O)O)c(O)c3)cc2)cc1` [Example 76, 4-[{4-[(4-butylphenyl)ethynyl]benzyl}(2,2-dimethylpropanoyl)amino]-2-hydroxybenzoic acid, N-methyl-D-glucamine (i.e. 1-deoxy-1-(methylamino)glucitol) salt], the IC50 at PTP1B came to 0.97 µM; on GLEPP-1, 0.99 µM; on SHP-1, 3 µM; at SHP-2, 2.2 µM; on PTP-H1, 6.3 µM.

Regarding `CCCCCCCCC#Cc1ccc(CN(C(=O)CCC2CCCC2)c2ccc(O)c(C(=O)O)c2)cc1` [Example 2, 5-[(3-cyclopentylpropanoyl)(4-dec-1-ynylbenzyl)amino]-2-hydroxybenzoic acid. N-methyl-D-glucamine (i.e. 1-deoxy-1-(methylamino)glucitol) salt], the IC50 amounted to 0.49 µM on PTP1B; 0.61 µM at GLEPP-1; 1.2 µM on SHP-1; 0.49 µM at SHP-2; 3.37 µM at PTP-H1. The “Decrease in blood glucose” value in the assay on db/db mice (Group 2: 30 mg/kg per os) came to 28%; in the assay with db/db mice (Group 3: 100 mg/kg per os), 58%. Besides, the “Decrease in serum insulin” value in the assay on db/db mice (Group 2: 30 mg/kg per os) amounted to 84%; with db/db mice (Group 3: 100 mg/kg per os) it was 88%.

On to `CCCCCCCCC#Cc1ccc(CN(Cc2ccc(OCC(=O)O)c(C(=O)O)c2)C(=O)/C=C/c2ccccc2)cc1` [Example 16, 2-(carboxymethoxy)-5-({(4-dec-1-ynylbenzyl)[(2E)-3-3-phenylprop-2-enoyl]amino}methyl)benzoic acid], for which the IC50 came out at 0.29 µM at PTP1B; 0.21 µM at GLEPP-1; 1.6 µM at SHP-1; 1.4 µM on SHP-2; 5.7 µM at PTP-H1.

In the case of `CCCCc1ccc(C#Cc2ccc(CN(C(=O)Cc3cccs3)c3ccc(F)c(C(=O)O)c3)cc2)cc1` [Example 68, 5-[{4-[(4-butylphenyl)ethynyl]benzyl}(2-thienylacetyl)amino]-2-fluorobenzoic acid, N-methyl-D-glucamine (i.e. 1-deoxy-1-(methylamino)glucitol) salt], the IC50 at PTP1B worked out at 0.49 µM; at GLEPP-1, 1.58 µM; at SHP-1, 3.7 µM; on SHP-2, 1.9 µM; at PTP-H1 it was 9.9 µM.
